The series in a line: solubility of the quarternary ammonium salt in solvents. The series is classed as physicochemical. On the procedure:
Preparation of Phenyl bis[4-NNN-trimethyl-ammonium-iodide-phenylamido]Phosphate, also designated phosphoric-acid-phenyl-ester-bis[4-NNN-trimethyl-ammonium-iodide-phenyl-amide] [drawing 25] The diamine V (Example 1) is dissolved in a mixture of 4:1 acetone:0.5MNaHCO3, and reacted overnight with excess Mel, methyliodide, at room temperature. The reaction mixture is then evaporated, dissolved in water and washed with ethyl acetate to remove impurities. The aqueous phase is then evaporated to dryness and the residue is washed several times with acetone to remove Sodiumiodide obtained as a by-product. The compound obtained is highly hygroscopic. The quarternary ammonium salt is very soluble in water but not in ethanol or acetone. It gives a negative reaction with TNBS.

For `C[N+](C)(C)c1ccc(NP(=O)(Nc2ccc([N+](C)(C)C)cc2)Oc2ccccc2)cc1` [Example 3, Phenyl bis[4-NNN-trimethyl-ammonium-iodide-phenylamido]Phosphate], for the setting “ethanol or acetone”, the “solubility in ethanol or acetone” value is “not”. For the same compound, the solubility in water entry (water) is “very soluble”.

The values are drawn from US4948908A, “Organo phosphorus compounds and pesticidal compositions” (priority 1986, dated 1990).
